The test system of this assay is Vaccinia virus. Description: Antiviral activity against Vaccinia virus infected in rabbit primary kidney cells assessed as inhibition of viral cytopathogenicity after 3 days. Type of assay: functional, Orthopoxvirus vaccinia.
For `Nc1ncnc2c1ncn2C[C@@H](O)CO`, the MID is >400 µg/mL. Then `OC[C@@H](O)Cn1cnc2c(O)ncnc21`, with >400 µg/mL; and `O=c1ccn(C[C@H](O)CO)c(=O)[nH]1`, with >400 µg/mL. In the case of `Cc1cn(C[C@H](O)CO)c(=O)[nH]c1=O`, the MID is >400 µg/mL. Then `Cc1cn(C[C@@H](O)CO)c(=O)[nH]c1=O`, with >400 µg/mL. `Cc1c[nH]c(=O)n(C[C@H](O)CO)c1=O`: the MID is >400 µg/mL. Turning to `NCCn1cnc2c(N)ncnc21`, the MID was >400 µg/mL. As for `CC(=O)OC[C@H](Cn1cnc2c(N)ncnc21)OC(C)=O`, the MID is >400 µg/mL.

Turning to `Nc1ncnc2c1ncn2CC[C@H](O)CO`, the MID worked out at 200 µg/mL. For `Nc1ncnc2c1ncn2C[C@@H](O)[C@@H](O)CO`, the MID was >400 µg/mL.

For `Nc1ncnc2c1ncn2C[C@H](O)[C@H](O)CO`, the MID stood at 200 µg/mL. As for `Nc1ncnc2c1ncn2C[C@@H](O)[C@H](O)CO`, the MID was >400 µg/mL. Consider `Nc1ncnc2c1ncn2C[C@H](O)[C@@H](O)CO`, for which the MID is >400 µg/mL. To `O=c1ccn(CC[C@H](O)CO)c(=O)[nH]1` belongs >400 µg/mL; to `O=c1ccn(C[C@@H](O)[C@H](O)CO)c(=O)[nH]1`, >400 µg/mL. To `Nc1ncnc2c1ncn2C(CO)CO` belongs >400 µg/mL; to `Nc1ncnc2c1ncn2CCCO`, 300 µg/mL; to `Nc1ncnc2c1ncn2CCO`, >400 µg/mL. To `Nc1ncnc2c1ncn2CC(O)CO` (racemic) belongs 40 µg/mL; to `Nc1nc(O)c2c(ncn2CC(O)CO)n1` (racemic), >400 µg/mL; to `Nc1ncnc2c1ncn2CCC(O)CO` (racemic), 100 µg/mL.

For the compound `Nc1ncnc2c1ncn2CCC(O)CCO` (racemic), the MID was >400 µg/mL. Consider `Nc1nc(N)c2ncn(CC(O)CO)c2n1` (racemic), for which the MID was >400 µg/mL. To `CSc1nc(N)c2ncn(CC(O)CO)c2n1` (racemic) belongs 400 µg/mL. For the compound `Nc1ncnc2c1nc(O)n2CC(O)CO` (racemic), the MID is >400 µg/mL. Then `Nc1ncnc2c1nc(S)n2CC(O)CO` (racemic), with >400 µg/mL; and `CNc1ncnc2c1ncn2CC(O)CO` (racemic), with >400 µg/mL; and `CN(C)c1ncnc2c1ncn2CC(O)CO` (racemic), with >400 µg/mL. Regarding `OCC(O)Cn1cnc2c(S)ncnc21` (racemic), the MID is >400 µg/mL. Then `Nc1nc2c(ncn2CC(O)CO)c(=O)[nH]1` (racemic), with >400 µg/mL; and `Nc1c2ncn(CC(O)CO)c2nc[n+]1[O-]` (racemic), with >400 µg/mL; and `Nc1ccn(CC(O)CO)c(=O)n1` (racemic), with >400 µg/mL.

For the compound `O=c1cnn(CC(O)CO)c(=O)[nH]1` (racemic), the MID was >400 µg/mL. To `CCC(=O)OCC(Cn1cnc2c(N)ncnc21)OC(=O)CC` (racemic) belongs >400 µg/mL; to `CCCCCCCCCCCCCCCC(=O)OCC(O)Cn1cnc2c(N)ncnc21` (racemic), 100 µg/mL; to `CC(C)(C)C(=O)OCC(O)Cn1cnc2c(N)ncnc21` (racemic), 300 µg/mL. To `CC(C)(C)C(=O)OCC(Cn1cnc2c(N)ncnc21)OC(=O)C(C)(C)C` (racemic) belongs 300 µg/mL; to `COC(CO)Cn1cnc2c(N)ncnc21` (racemic), >400 µg/mL; to `COCC(O)Cn1cnc2c(N)ncnc21` (racemic), >400 µg/mL. `COCC(Cn1cnc2c(N)ncnc21)OC` (racemic): the MID was >400 µg/mL.

Turning to `[N-]=[N+]=NCC(O)Cn1cnc2c(N)ncnc21` (racemic), the MID is >400 µg/mL. Regarding `[N-]=[N+]=NCC(Cn1cnc2c(N)ncnc21)N=[N+]=[N-]` (racemic), the MID was determined as 150 µg/mL. Then `Nc1ncnc2c1ncn2CC(N)CO` (racemic), with >400 µg/mL; and `NCC(O)Cn1cnc2c(N)ncnc21` (racemic), with 400 µg/mL; and `NCC(N)Cn1cnc2c(N)ncnc21` (racemic), with >400 µg/mL. To `Nc1ncnc2c1ncn2CC(O)C(O)CO` (racemic) belongs 400 µg/mL. Then `O=c1ccn(CC(O)C(O)CO)c(=O)[nH]1` (racemic), with >400 µg/mL.

Consider `O=c1ccn(C[C@H](O)[C@H](O)CO)c(=O)[nH]1` (racemic), for which the MID was >400 µg/mL.

For `O=c1ccn(CCC(O)CCO)c(=O)[nH]1` (racemic), the MID is >400 µg/mL. As for `C[C@@H](O)[C@@H](O)Cn1cnc2c(N)ncnc21` (racemic), the MID was determined as 150 µg/mL. In the case of `CC(O)Cn1cnc2c(N)ncnc21` (racemic), the MID is >400 µg/mL. As for `Nc1ncnc2c1nc(Br)n2CC(O)CO` (racemic), the MID was >200 µg/mL. Then `Nc1ncnc2c1ncn2C[C@H](O)CO` [(S)-DHPA], with 10 µg/mL.

Regarding `Nc1ccn([C@@H]2O[C@H](CO)[C@@H](O)[C@@H]2O)c(=O)n1` [CYTARABINE], the MID was 0.02 µg/mL. On to `O=c1[nH]c(=O)n([C@H]2C[C@H](O)[C@@H](CO)O2)cc1I` [IDOXURIDINE], for which the MID stood at 0.1 µg/mL. To `Nc1ncnc2c1ncn2[C@@H]1O[C@H](CO)[C@@H](O)[C@@H]1O` [VIDARABINE] belongs 0.3 µg/mL.

The values are drawn from ChEMBL document CHEMBL3244391, “Antiviral activity of aliphatic nucleoside analogues: structure-function relationship” (1979).
